Common to all, as to assay type: cell-based
Series [1] in a line: MTT assay (cytotoxicity), DU145 cells. The settings on record: human, DU145 cells. The procedure:
(§1) MTT assays: LNCaP, 22Rv1, Du145, H1975, A549, MB231 and MCF-7 cells are maintained in RPMI 1640 supplemented with 10% FBS. Cells were seeded at a density of 6-7×10^3 cells per well in 96-well plates. After overnight incubation, cells in fresh RPMI 1640 supplemented with 10% FBS were exposed to DMSO vehicle control or test compounds at designated concentrations for 72 h. Viable cells were evaluated by MTT assays. Experiments were performed in triplicate and repeated at least twice.

Series [2] is described as follows: MTT assay (cytotoxicity), LNCaP cells. The settings on record: human, LNCaP cells, 72 h. As for the experimental part: as §1
The nature of series [3]: MTT assay (cytotoxicity), 22Rv1 cells. The settings on record: human, 22Rv1 cells, 72 h. As for the experimental part:
as §1

A further series has as its system DU145 cells. The experiment in a line: MTT assay (cytotoxicity), DU145 cells. The settings on record: 72 h. The procedure: as §1
For a further series, the system named is LNCaP cells. The series can be described thus: MTT assay (cytotoxicity), LNCaP cells. The following applies: 72 h. As for the experimental part: as §1
Another series deals with 22Rv1 cells. The series can be described thus: MTT assay (cytotoxicity), 22Rv1 cells. The following applies: 72 h. As for the experimental part:
as §1

The text below walks through data of patent publication US20170273922A1, “UREA AND BIS-UREA BASED COMPOUNDS AND ANALOGUES THEREOF USEFUL IN THE TREATMENT OF ANDROGEN RECEPTOR MEDIATED DISEASES OR DISORDERS” (THE ROYAL INSTITUTION FOR THE ADVACEMENT OF LEARNING/MCGILL …, priority 2014, published 2017).

Where only a bound is given, the exact number is not on record here.

With `O=C(Nc1cc(C(F)(F)F)cc(C(F)(F)F)c1)Nc1ccncn1` [Compound 578], the IC50 at 72 h stood at 2.4 µM in series [1] (Table 4.1), 1.3 µM in series [2] (Table 4.1) and 5.5 µM in series [3] (Table 4.1).
For the compound `O=C(N/C=C/c1ccc2c(c1)OCO2)Nc1ccc([N+](=O)[O-])c(C(F)(F)F)c1` [Compound 444], the IC50 at 72 h in series [1] (Table 2.4) came out at 14 µM; in series [2] (Table 2.4) it was 14.6 µM; in series [3] (Table 2.4) it was 17.5 µM.
For the compound `O=C(N/C=C/c1ccc(C(F)(F)F)cc1)Nc1ccc2c(c1)OCO2` [Compound 432], the half-maximal inhibitory concentration (IC50) at 72 h in series [1] (Table 2.3), in series [2] (Table 2.3) and in series [3] (Table 2.3) was above 20 µM each time.
`O=C(N/C=C/c1cccc(C(F)(F)F)c1)Nc1cccc(NC(=O)N/C=C/c2cccc(C(F)(F)F)c2)c1` [Compound 440]: the 50% inhibitory concentration (IC50) at 72 h in series [1] (Table 5.1) worked out at 5.1 µM; in series [2] (Table 5.1), 1.7 µM; in series [3] (Table 5.1) it was 4.9 µM.
In the case of `CC(C)(C)OC(=O)n1cnc(/C=C/NC(=O)Nc2ccc([N+](=O)[O-])c(C(F)(F)F)c2)c1` [Compound 453], the IC50 at 72 h in series [1] (Table 2.4) is above 20 µM; in series [2] (Table 2.4), 4 µM; in series [3] (Table 2.4), above 20 µM.
As to `CC(C)(C)OC(=O)n1cc(/C=C/NC(=O)Nc2ccc([N+](=O)[O-])c(C(F)(F)F)c2)c2ccccc21` [Compound 450], the IC50 at 72 h in series [1] (Table 2.4) was determined as 4.9 µM; in series [2] (Table 2.4) it was 1.8 µM; in series [3] (Table 2.4), 4 µM.
In the case of `O=C(N/C=C/c1cccc(C(F)(F)F)c1)Nc1ccc2c(c1)OCO2` [Compound 418], the IC50 at 72 h in series [1] (Table 2.3), in series [2] (Table 2.3) and in series [3] (Table 2.3) was above 20 µM throughout.
Consider `O=C(N/C=C/c1cccc(C(F)(F)F)c1)Nc1ccccc1NC(=O)N/C=C/c1cccc(C(F)(F)F)c1` [Compound 451], for which the IC50 at 72 h in series [1] (Table 5.1) amounted to 5.4 µM; in series [2] (Table 5.1) it was 2.4 µM; in series [3] (Table 5.1) it was 4.4 µM.
Take `O=C(NCCc1cccc(C(F)(F)F)c1)Nc1ccc([N+](=O)[O-])c(C(F)(F)F)c1` [Compound 448]: the figures for the IC50 at 72 h in series [1] (Table 2.4), in series [2] (Table 2.4) and in series [3] (Table 2.4) were 7.5 µM, 1.8 µM and 4.5 µM, respectively.
In the case of `O=C(Nc1cc(C(F)(F)F)cc(C(F)(F)F)c1)Nc1ccc2[nH]ccc2c1` [Compound 530], the figures for the IC50 at 72 h in series [1] (Table 4.1), in series [2] (Table 4.1) and in series [3] (Table 4.1) were 8.3 µM, 6 µM and 7.1 µM, respectively.
`O=C(N/C=C/c1cccc(C(F)(F)F)c1)Nc1ccc2[nH]ccc2c1` [Compound 520]: the IC50 at 72 h in series [1] (Table 2.3) is above 10 µM; in series [2] (Table 2.3), 6.5 µM; in series [3] (Table 2.3) it was above 10 µM.
Regarding `O=C(N/C=C/c1cccc(C(F)(F)F)c1)Nc1cnc2ccccc2c1` [Compound 525], the IC50 at 72 h in series [1] (Table 2.3), in series [2] (Table 2.3) and in series [3] (Table 2.3) was above 10 µM in each case.
Turning to `O=C(Nc1cccc(C(F)(F)F)c1)Nc1ccncn1` [Compound 574], the IC50 at 72 h in series [1] (Table 4.1) was above 20 µM; in series [2] (Table 4.1) it was 13.8 µM; in series [3] (Table 4.1) it was above 20 µM.
For the compound `CC(C)(C)OC(=O)n1cc(/C=C/NC(=O)Nc2ccc(NC(=O)N/C=C/c3cn(C(=O)OC(C)(C)C)c4ccccc34)cc2)c2ccccc21` [Compound 452], the IC50 at 72 h is 3.4 µM in series [1] (Table 5.1), above 20 µM in series [2] (Table 5.1) and above 20 µM in series [3] (Table 5.1).
For `O=C(N/C=C/c1cccc(C(F)(F)F)c1)NCCc1cccc(C(F)(F)F)c1` [Compound 459], the IC50 at 72 h in series [1] (Table 2.4) was above 10 µM; in series [2] (Table 2.4), 7.1 µM.
On to `O=C(N/C=C/c1cc(C(F)(F)F)cc(C(F)(F)F)c1)Nc1cnc2ccccc2c1` [Compound 523], for which the values for the IC50 at 72 h in series [1] (Table 2.3), in series [2] (Table 2.3) and in series [3] (Table 2.3) were 10 µM, 8 µM and 8.4 µM, respectively.
In the case of `N#Cc1ccc(NC(=O)N/C=C/c2cccs2)cc1` [Compound 424], the IC50 at 72 h in series [1] (Table 2.4) turned out to be 14.4 µM; in series [2] (Table 2.4) it was 5 µM; in series [3] (Table 2.4), 16.7 µM.
In the case of `CC/C=C(\C)CN(C(=O)N/C=C/c1cc(C(F)(F)F)cc(C(F)(F)F)c1)c1ccc(C#N)nc1` [Compound 534], the IC50 at 72 h amounted to 7.1 µM in series [1] (Table 2.5), 6 µM in series [2] (Table 2.5) and 7.3 µM in series [3] (Table 2.5).
With `O=C(Nc1cccc(C(F)(F)F)c1)Nc1ccc2[nH]ccc2c1` [Compound 522], the IC50 at 72 h in series [1] (Table 4.1), in series [2] (Table 4.1) and in series [3] (Table 4.1) was above 10 µM in each case.
As to `O=C(N/C=C/c1cc(C(F)(F)F)cc(C(F)(F)F)c1)Nc1ccn(C(=O)N/C=C/c2cc(C(F)(F)F)cc(C(F)(F)F)c2)c(=O)n1` [Compound 532], the IC50 at 72 h turned out to be 5.1 µM in series [1] (Table 5.1), 2.4 µM in series [2] (Table 5.1) and 4.3 µM in series [3] (Table 5.1).
Regarding `O=C(N/C=C/c1ccc([N+](=O)[O-])c(C(F)(F)F)c1)NCc1cccc(C(F)(F)F)c1` [Compound 461], the IC50 at 72 h in series [1] (Table 2.4) amounted to 3.4 µM; in series [2] (Table 2.4), 2.4 µM; in series [3] (Table 2.4), 3.4 µM.
As to `Nc1ccc(NC(=O)N/C=C/c2ccc(C(F)(F)F)cc2)cc1` [Compound 462], the values for the IC50 in the series with DU145 cells (Table 2.2), with LNCaP cells (Table 2.2) and with 22Rv1 cells (Table 2.2) were 3.2 µM, 3.5 µM and 6.3 µM, respectively.
Consider `O=C(N/C=C/c1cc(C(F)(F)F)cc(C(F)(F)F)c1)Nc1ccc([N+](=O)[O-])c(C(F)(F)F)c1` [Compound 438], for which the IC50 with DU145 cells (Table 2.2) is 0.9 µM; in the series on LNCaP cells (Table 2.2) it was 0.5 µM; in the series on 22Rv1 cells (Table 2.2), 0.6 µM.
Consider `O=C(N/C=C/c1cccs1)Nc1ccc([N+](=O)[O-])c(C(F)(F)F)c1` [Compound 419], for which the IC50 at 72 h was found to be 6.9 µM in series [1] (Table 2.4), 3.2 µM in series [2] (Table 2.4) and 4.1 µM in series [3] (Table 2.4).
For `O=C(N/C=C/c1cc(C(F)(F)F)cc(C(F)(F)F)c1)Nc1ccc2ncccc2c1` [Compound 515], the IC50 at 72 h in series [1] (Table 2.3), in series [2] (Table 2.3) and in series [3] (Table 2.3) was above 10 µM each time.
With `N#Cc1ccc(NC(=O)Nc2cc(C(F)(F)F)cc(C(F)(F)F)c2)cc1C(F)(F)F` [Compound 494], the IC50 is 1.5 µM with DU145 cells (DU145 cells, Table 4.2); 0.3 µM with LNCaP cells (LNCaP cells, Table 4.2); 1.6 µM in the series on 22Rv1 cells (22Rv1 cells, Table 4.2).
Take `N#Cc1ccc(NC(=O)N/C=C/c2cccc(F)c2)cc1C(F)(F)F` [Compound 433]: the IC50 in the series on DU145 cells (Table 2.2) was 3.9 µM; in the series on LNCaP cells (Table 2.2) it was 1.9 µM; in the series on 22Rv1 cells (Table 2.2), 3.2 µM.
Turning to `O=C(N/C=C/c1cc(C(F)(F)F)ccc1C(F)(F)F)Nc1ccc([N+](=O)[O-])c(C(F)(F)F)c1` [Compound 436], the IC50 in the series on DU145 cells (Table 2.2) is 0.7 µM; in the series on LNCaP cells (Table 2.2), 0.5 µM; in the series on 22Rv1 cells (Table 2.2) it was 0.8 µM.
As to `O=C(N/C=C/c1cc(C(F)(F)F)ccc1C(F)(F)F)Nc1ccc2ncccc2c1` [Compound 517], the results for the IC50 at 72 h in series [1] (Table 2.3), in series [2] (Table 2.3) and in series [3] (Table 2.3) were 6.2 µM, 3.4 µM and above 10 µM, respectively.
For `COc1cccc(/C=C/NC(=O)Nc2ccc3c(c2)OCO3)c1` [Compound 431] the same measures were above 20 µM, 17.3 µM and above 20 µM.
As for `O=C(N/C=C/c1ccccc1C(F)(F)F)Nc1ccc2c(c1)OCO2` [Compound 427], the IC50 at 72 h in series [1] (Table 2.3) was 19.2 µM; in series [2] (Table 2.3) it was 9.5 µM.
In the case of `O=C(N/C=C/c1ccco1)Nc1ccc([N+](=O)[O-])c(C(F)(F)F)c1` [Compound 434], the IC50 at 72 h in series [1] (Table 2.4) was 7.8 µM; in series [2] (Table 2.4) it was 2 µM; in series [3] (Table 2.4), 5.6 µM.
As to `O=C(N/C=C/c1cc(C(F)(F)F)cc(C(F)(F)F)c1)Nc1ncccc1Br` [Compound 527], the IC50 worked out at 6.8 µM in the series with DU145 cells (Table 2.1), 5.3 µM with LNCaP cells (Table 2.1) and 7.6 µM in the series on 22Rv1 cells (Table 2.1).
In the case of `O=C(N/C=C/c1cc(C(F)(F)F)ccc1C(F)(F)F)Nc1cnc2ccccc2c1` [Compound 524], the IC50 at 72 h in series [1] (Table 2.3) stood at 7.4 µM; in series [2] (Table 2.3) it was 3.4 µM; in series [3] (Table 2.3) it was 8.4 µM.
In the case of `N#Cc1ccc(NC(=O)N/C=C/c2cccc(C(F)(F)F)c2)cc1` [Compound 416], the IC50 in the series with DU145 cells (Table 2.2) came to 2.6 µM; with LNCaP cells (Table 2.2), 1.6 µM; in the series with 22Rv1 cells (Table 2.2), 3.6 µM.
For `O=C(N/C=C/c1cccs1)Nc1cccc(C(F)(F)F)c1` [Compound 420], the half-inhibitory concentration (IC50) at 72 h is 12.3 µM in series [1] (Table 2.4), 6.4 µM in series [2] (Table 2.4) and 12.3 µM in series [3] (Table 2.4).
On to `Cc1ccccc1NC(=O)N/C=C/c1cccc(C(F)(F)F)c1` [Compound 445], for which the IC50 in the series on DU145 cells (Table 2.2) was 4.8 µM; with LNCaP cells (Table 2.2) it was 4.1 µM; in the series with 22Rv1 cells (Table 2.2), 5.2 µM.
